Consider five compounds from patent publication US8889153B2, “Combination of immunomodulator and anti-pathogenic agent” (priority 2008, dated 2014).

Values joined by “and” are separate entries in the source; they are usually repeats but may differ in a detail not shown here. Identical values can stand only once.

Data set [1] concerns Herpes sp. As to the kind of experiment: Patients with recurrent herpetic lesions (cutaneous and genital), symptom recurrence. In kind it is in vivo, Herpes virus (host: human patients). The settings on record: Acyclovir alone, oral, 3 daily doses of 200 mg, 10 days.
The subject of data set [2] is Candida sp. The settings on record: 20 HIV/AIDS patients per group, Fluconazole 400 mg/day × 5 days oral, Immunomodulator 10 mg/day × 5 days i.m.
In data set [3] the test system is Plasmodium chabaudi. As to the kind of experiment: Experimental Plasmodium chabaudi infection, survival and parasitemia. It counts as in vivo, Plasmodium chabaudi (host: C57BL/6 mice). The settings on record: for Survival/Number of animals: 21 days observation.
The test system of data set [4] is M. tuberculosis-Erdman. Also noted: species or system Mycobacterium tuberculosis (host: C57BL/6 mice). To be noted: mouse, in vivo.
Data set [5] relates to TH-1 and TH-2 types cytokines (IL-2, IFN-gamma, IL-4, and IL-10). As to the kind of experiment: Cytokine dosage (sandwich-ELISA, Con-A stimulated spleen culture supernatant) in experimental L. monocytogenes infection. In kind it is in vivo, BALB/c mice. Background: ELISA stands for enzyme-linked immunosorbent assay.
The subject of data set [6] is L. monocytogenes. The settings on record: experimental animals; PI0305373-3, U.S. Ser. No. 10/978,683, EPA 0426250.3.2405; cited from earlier work.
For data set [7], the system named is L. monocytogenes. As to the kind of experiment: Experimental L. monocytogenes infection, lethal dose, survivors at 30 days. In kind it is in vivo, Listeria monocytogenes (host: BALB/c mice). To be noted: BALB/c mice, n = 10 per group, 2×10^6 L. monocytogenes i.p.; Immunomodulator 100 mg/kg single dose i.p.; Rifampicine 2 mg/kg and Gentamicin 2 mg/kg × 5 days.
Data set [8] has as its system HCV subtype I-b. As to the kind of experiment: Clinical trial in hepatitis C patients, laboratorial parameters. To be noted: two patients (A and D) of 5; Immunomodulator 25 mg weekly i.m., 12 months; no treatment interruption.
The mark [9] stands for this setting: Group D: Chloroquine 5 mg/kg single i.p. dose.
[10] abbreviates: Group E: Chloroquine 2 mg/kg single i.p. dose.
Setting [11] is: Control (non-infected) BALB/c mice, Immunomodulator 5 mg/kg/day i.p. 7 days.
[12] abbreviates: Infected 48 h (2×10^4 L. monocytogenes i.p.), Immunomodulator 5 mg/kg/day i.p. 7 days prior to inoculation.
Setting [13] is: Infected 72 h (2×10^4 L. monocytogenes i.p.), Immunomodulator 5 mg/kg/day i.p. 7 days prior to inoculation.
The mark [14] stands for this setting: Group G: Immunomodulator 100 mg/kg i.p. single dose.

For the compound `Nc1nc(=O)c2ncn(COCCO)c2[nH]1` [Acyclovir, 2-amino-9-[(2-hydroxyethoxy)methyl]-3,9-dihydro-6H-purin-6-one], in data set [1] (first stage, 30 patients), the “average recurrence period of time of the disease symptoms” value worked out at 2 months. Further, the “average recurrence period of symptoms” value in data set [1] (second stage, 15 patients) is listed as 2 months.
Take `OC(Cn1cncn1)(Cn1cncn1)c1ccc(F)cc1F` [Antifungal]: the “% Respondents” value in data set [2] came to 100%. In addition, the “Symptoms Average recurrence period” value in data set [2] (six months follow-up) is 45 days.
With `CCN(CC)CCCC(C)Nc1ccnc2cc(Cl)ccc12` (stereo not drawn) [Chloroquine, N′-(7-chloroquinolin-4-yl)-N,N-diethyl-pentane-1,4-Diamine], the Survival/Number of animals in data set [3] (Group B: Chloroquine 15 mg/kg single i.p. dose) was 6-6; in data set [3] (setting [9]), 0-6; in data set [3] (setting [10]), 0-6. Besides, the “Parasitemia (%) ± Standart deviation (SD)” value in data set [3] (Group B: Chloroquine 15 mg/kg single i.p. dose, day 5) is recorded as 17 ± 0.7 (day 5) %; in data set [3] (Group B: Chloroquine 15 mg/kg single i.p. dose, day 21) it was 8 ± 1.2 (day 21%; in data set [3] (Group D: Chloroquine 5 mg/kg single i.p. dose, day 5) it was 65 ± 0.9 (day 5) %; in data set [3] (Group E: Chloroquine 2 mg/kg single i.p. dose, day 5), 89 ± 1.3 (day 5) %. Also, the “increase in survival rate compared to the control groups” value in data set [3] (Group D: Chloroquine 5 mg/kg) is 2 days. The values for the Day of death in data set [3] (setting [9]) and in data set [3] (setting [10]) were 10 days and 8 days, respectively. In data set [3] (Group E: Chloroquine 2 mg/kg), the “difference in the survival rate to the control groups” value is on record as “no significant difference”.
With `NNC(=O)c1ccncc1` [INH, pyridine-4-carbohydrazide, reference compound], in data set [4], the “Bacillary load - Lung + Standard Deviation (SD)” value is on record as 3.52 ± 0.65 and the “Bacillary load - Spleen + Standard Deviation (SD)” value came out at 4.82 ± 0.62.
In data set [5] (setting [11]), “proteic aggregate of ammonium and magnesium phospholinoleate-palmitoleate anhydride [Immunomodulator]” gave an IFN-γ of 1012 ± 41 pg/mL, an Il-2 of 167 ± 11 pg/mL, an Il-4 of 63 ± 19 pg/mL and an Il-10 of 227 ± 37 pg/mL. In data set [5] (setting [12]), this compound registered an IFN-γ of 1691 ± 62 pg/mL, an Il-2 of 206 ± 31 pg/mL, an Il-4 of 75 ± 18 pg/mL and an Il-10 of 224 ± 17 pg/mL. In data set [5] (setting [13]), this compound yielded an IFN-γ of 1884 ± 70 pg/mL, an Il-2 of 248 ± 34 pg/mL, an Il-4 of 73 ± 11 pg/mL and an Il-10 of 221 ± 37 pg/mL. In data set [6], the “protection against infection by lethal dose of L. monocytogenes” value was “partial protection”. In addition, in data set [7], the “% surviving animals - 30 days” value was found to be 30% and the “Number surviving animals - 30 days” value is reported as 3. The Day of death in data set [3] (Group F: Immunomodulator 5 mg/kg × 5 days) turned out to be 11 days. Further, in data set [3] (Group F: Immunomodulator 5 mg/kg × 5 days, start 1 day after infection), the Survival/Number of animals is recorded as 0-6. Moreover, the “Parasitemia (%) ± Standart deviation (SD)” value in data set [3] (Group F: Immunomodulator 5 mg/kg × 5 days, day 5) was 54 ± 0.8 (day 5) %. In addition, in data set [3] (setting [14]), the Day of death worked out at 12 days and the Survival/Number of animals was 0-6. The “Parasitemia (%) ± Standart deviation (SD)” value in data set [3] (Group G: Immunomodulator 100 mg/kg i.p. single dose, day 5) is on record as 52 ± 0.9 (day 5) %. In addition, the “increase in survival rate in relation to the control animals” value in data set [3] (Groups F and G: Immunomodulator 5 mg/kg × 5 days and 100 mg/kg single dose) fell in the range of 3 to 4 days. Further, the “tolerance at the site of injection” value in data set [8] is “mild pain and discomfort at the site of injection”. Besides, in data set [4], the “Bacillary load - Lung + Standard Deviation (SD)” value was 5.42 ± 0.59 and 4.85 ± 0.46; the “Bacillary load - Spleen + Standard Deviation (SD)” value is 5.25 ± 0.61 and 4.93 ± 0.47.
